Assay [1] addresses T1, Human Tryptophan 2,3-dioxygenase (TDO) (Homo sapiens, UniProt P48775).
T1 construct: His tag (N); made in house; host or cells: E. coli
As to the kind of experiment: Human TDO enzymatic assay (kynurenine level). The note with it: 1 nM TDO, 350 μM L-Trp; geometric mean; read-out: TDO GMean: IC50 (μM) (Biochemical Assay). It is filed as biochemical. The essentials:
(§1)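 IDO conditions: 6 nM His-IDO, 10 μM L-Trp, 5 μM methylene blue, 20 min, RT. TDO conditions: 1 nM His-TDO, 350 μM L-Trp, 0.4 μM methylene blue, 70 min, RT. Both used pH 6.5 phosphate plus ascorbate/catalase, TCA stop at 50° C, kynurenine readout, nonlinear-regression IC50.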

Assay [2] addresses T2, Human Indoleamine 2,3-dioxygenase (IDO) (Homo sapiens, UniProt P14902).
T2 construct: His tag (N); made in house; host or cells: E. coli
The assay can be described thus: Human IDO enzymatic assay (kynurenine level). Format: biochemical. To be noted: 6 nM IDO, 10 μM L-Trp; geometric mean; read-out: IDO1 GMean: IC50 (μM) (Biochemical Assay). The essentials:
as §1

The target in assay [3] is T3, human TDO (TDO-expressing HEK293 cells) (Homo sapiens, UniProt P48775).
T3 construct: expressed in transfected cells
The assay can be described thus: Cell based kynurenine assay, TDO-expressing HEK293 cell clones. The note with it: TDO-expressing HEK293 cells, 24 hours incubation; geometric mean; read-out: HEK293 TDO Kynurenine GMean IC50 (μM) (Cellular Assay). An outline of the steps: (§2)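 Kynurenine in culture supernatant read after 24 h compound exposure of HEK293 cells stably expressing human IDO1 or TDO. IC50 from nonlinear regression of % inhibition relative to 0.2% DMSO cell (high) and media-only (low) controls.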

Assay [4] deals with T4, human IDO (IDO1-expressing HEK293 cells) (Homo sapiens, UniProt P14902).
T4 construct: expressed in transfected cells
The assay can be described thus: Cell based kynurenine assay, IDO1-expressing HEK293 cell clones. The note with it: IDO1-expressing HEK293 cells, 24 hours incubation; geometric mean; read-out: HEK293 IDO1 Kynurenine GMean IC50 (μM) (Cellular Assay). An outline of the steps: as §2

The record followed here is US10508085B2, “Compounds and methods for IDO and TDO modulation, and indications therefor” (Plexxikon Inc., priority 2016, dated 2019).

Molecules are shown by their SMILES.

T3 sequence (P48775 whole entry): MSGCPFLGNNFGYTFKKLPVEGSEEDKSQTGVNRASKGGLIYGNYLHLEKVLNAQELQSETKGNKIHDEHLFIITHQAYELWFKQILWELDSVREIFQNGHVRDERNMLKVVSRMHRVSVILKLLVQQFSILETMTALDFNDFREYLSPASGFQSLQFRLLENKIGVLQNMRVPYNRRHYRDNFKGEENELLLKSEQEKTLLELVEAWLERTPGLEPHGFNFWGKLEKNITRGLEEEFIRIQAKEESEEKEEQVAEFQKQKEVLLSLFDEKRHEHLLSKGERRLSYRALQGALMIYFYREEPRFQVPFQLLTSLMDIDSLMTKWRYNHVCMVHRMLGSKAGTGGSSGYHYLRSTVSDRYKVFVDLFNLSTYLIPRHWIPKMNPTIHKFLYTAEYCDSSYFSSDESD
T1 sequence (P48775 whole entry): as above
T4 sequence (P14902 whole entry): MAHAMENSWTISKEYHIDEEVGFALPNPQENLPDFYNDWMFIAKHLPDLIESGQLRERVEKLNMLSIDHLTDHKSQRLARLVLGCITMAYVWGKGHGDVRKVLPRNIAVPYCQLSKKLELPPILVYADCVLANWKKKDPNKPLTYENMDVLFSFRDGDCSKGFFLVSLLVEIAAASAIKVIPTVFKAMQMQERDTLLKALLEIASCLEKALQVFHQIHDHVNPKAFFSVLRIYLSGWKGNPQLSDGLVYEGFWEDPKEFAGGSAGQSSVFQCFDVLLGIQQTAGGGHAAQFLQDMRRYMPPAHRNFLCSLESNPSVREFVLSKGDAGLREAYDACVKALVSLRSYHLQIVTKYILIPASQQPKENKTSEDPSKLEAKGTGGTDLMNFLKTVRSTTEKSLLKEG
T2 sequence (P14902 whole entry): as above

Take `O=C(NCC(F)(F)F)N1CCC(C(F)(F)C(O)c2cc(Cl)cc3cn[nH]c23)CC1` (stereo not shown) [Compound P-0333, 4-(2-(5-chloro-1H-indazol-7-yl)-1,1-difluoro-2-hydroxyethyl)-N-(2,2,2-trifluoroethyl) piperidine-1-carboxamide]: the IC50 in assay [1], in assay [2], in assay [3] and in assay [4] was 0.0001 to 10 µM in each case.

Regarding `O[C@H](c1c(F)c(Cl)cc2cn[nH]c12)C12CCC(CC1)CC2` [Compound P-0334, (S)-bicyclo[2.2.2]octan-1-yl(5-chloro-6-fluoro-1H-indazol-7-yl)methanol], the IC50 in assay [1], in assay [2], in assay [3] and in assay [4] was 0.0001 to 10 µM throughout.

As for `O[C@@H](c1c(F)c(Cl)cc2cn[nH]c12)C12CCC(CC1)CC2` [Compound P-0335, (R)-bicyclo[2.2.2]octan-1-yl(5-chloro-6-fluoro-1H-indazol-7-yl)methanol], the half-maximal inhibitory concentration (IC50) (in general, the midpoint of a concentration-inhibition curve) in assay [1] was 0.0001 to 10 µM; in assay [2] it was 0.0001 to 10 µM; in assay [3], more than 10 µM; in assay [4] it was 0.0001 to 10 µM.

For `OC1(c2cc(Cl)cc3[nH]ncc23)CC2(CCC2)C1` [Compound P-0336, 2-(6-chloro-1H-indazol-4-yl)spiro[3.3] heptan-2-ol], the 50% inhibitory concentration (IC50) in assay [1] is 0.0001 to 10 µM; in assay [2], 10 to 100 µM; in assay [3] it was 0.0001 to 10 µM; in assay [4], more than 10 µM.

As to `CC(C)(C)OC(=O)N1CCC(C(C)(C)[C@H](O)c2cc(Cl)cc3cn[nH]c23)CC1` [Compound P-0337, tert-butyl (S)-4-(1-(5-chloro-1H-indazol-7-yl)-1-hydroxy-2-methylpropan-2-yl)piperidine-1-carboxylate], the IC50 in assay [1], in assay [2], in assay [3] and in assay [4] was 0.0001 to 10 µM throughout.

Regarding `CC(C)(C)OC(=O)N1CCC(C(C)(C)[C@@H](O)c2cc(Cl)cc3cn[nH]c23)CC1` [Compound P-0338, tert-butyl (R)-4-(1-(5-chloro-1H-indazol-7-yl)-1-hydroxy-2-methylpropan-2-yl)piperidine-1-carboxylate], the IC50 is 0.0001 to 10 µM in assay [1], 0.0001 to 10 µM in assay [2], 0.0001 to 10 µM in assay [3] and more than 10 µM in assay [4].

As to `CC(C)(C1CCN(C(=O)Nc2ccc(F)cc2)CC1)[C@@H](O)c1cc(Cl)cc2cn[nH]c12` [Compound P-0339, (R)-4-(1-(5-chloro-1H-indazol-7-yl)-1-hydroxy-2-methylpropan-2-yl)-N-(4-fluorophenyl) piperidine-1-carboxamide], the IC50 in assay [1], in assay [2], in assay [3] and in assay [4] was 0.0001 to 10 µM throughout.

`CC(C)(C(O)c1cc(Cl)cc2cn[nH]c12)[C@H]1C[C@H]2CC[C@@H](C1)N2C(N)=O` (stereo partly shown) [Compound P-0340]: the IC50 in assay [1], in assay [2], in assay [3] and in assay [4] was 0.0001 to 10 µM throughout.

For the compound `O=C(c1cccnc1)N1CCC(C(F)(F)C(O)c2c(F)c(Cl)cc3cn[nH]c23)CC1` (stereo not shown) [Compound P-0341, (4-(2-(5-chloro-6-fluoro-1H-indazol-7-yl)-1,1-difluoro-2-hydroxyethyl)piperidin-1-yl)(pyridin-3-yl)methanone], the IC50 in assay [1], in assay [2], in assay [3] and in assay [4] was 0.0001 to 10 µM in each case.

For the compound `COC(=O)N1CCC(C(F)(F)C(O)c2c(F)c(Cl)cc3cn[nH]c23)CC1` (stereo not shown) [Compound P-0342, methyl 4-(2-(5-chloro-6-fluoro-1H-indazol-7-yl)-1,1-difluoro-2-hydroxyethyl) piperidine-1-carboxylate], the IC50 in assay [1], in assay [2], in assay [3] and in assay [4] was 0.0001 to 10 µM in each case.

On to `O=C(C1CC1)N1CCC(C(F)(F)C(O)c2c(F)c(Cl)cc3cn[nH]c23)CC1` (stereo not shown) [Compound P-0343, (4-(2-(5-chloro-6-fluoro-1H-indazol-7-yl)-1,1-difluoro-2-hydroxyethyl)piperidin-1-yl)(cyclopropyl) methanone], for which the IC50 in assay [1], in assay [2], in assay [3] and in assay [4] was 0.0001 to 10 µM throughout.

In the case of `CC(C)(C1CCN(C(=O)Nc2ccc(F)cc2)CC1)[C@H](O)c1cc(Cl)cc2cn[nH]c12` [Compound P-0344, (S)-4-(1-(5-chloro-1H-indazol-7-yl)-1-hydroxy-2-methylpropan-2-yl)-N-(4-fluorophenyl)piperidine-1-carboxamide], the IC50 in assay [1], in assay [2], in assay [3] and in assay [4] was 0.0001 to 10 µM each time.

As to `NS(=O)(=O)N1CCC(C(F)(F)C(O)c2cc(Cl)cc3cn[nH]c23)CC1` (stereo not shown) [Compound P-0345, 4-(2-(5-chloro-1H-indazol-7-yl)-1,1-difluoro-2-hydroxyethyl) piperidine-1-sulfonamide], the IC50 in assay [1], in assay [2], in assay [3] and in assay [4] was 0.0001 to 10 µM in each case.

With `NC(=O)N1CCC2(CC1)CC(O)(c1cc(Cl)cc3cn[nH]c13)C2` [Compound P-0346, 2-(5-chloro-1H-indazol-7-yl)-2-hydroxy-7-azaspiro[3.5] nonane-7-carboxamide], the IC50 in assay [1], in assay [2], in assay [3] and in assay [4] was 0.0001 to 10 µM in each case.

`CC(C)(C(O)c1cc(Cl)cc2cn[nH]c12)[C@H]1C[C@H]2CC[C@@H](C1)N2S(N)(=O)=O` (stereo partly drawn) [Compound P-0347, (1R,3r,5S)-3-(1-(5-chloro-1H-indazol-7-yl)-1-hydroxy-2-methylpropan-2-yl)-8-azabicyclo[3.2.1] octane-8-sulfonamide]: the IC50 in assay [1], in assay [2], in assay [3] and in assay [4] was 0.0001 to 10 µM in each case.

As for `COC12CCC(C(O)c3cc(Cl)cc4[nH]ncc34)(CC1)CC2` (stereo not shown) [Compound P-0348, (6-chloro-1H-indazol-4-yl)(4-methoxybicyclo [2.2.2]octan-1-yl)methanol], the IC50 was 0.0001 to 10 µM in assay [1], 0.0001 to 10 µM in assay [2], 0.0001 to 10 µM in assay [3] and more than 10 µM in assay [4].

With `O=C(C1CCC1)N1CCC(C(F)(F)C(O)c2cc(Cl)cc3cn[nH]c23)CC1` (stereo not shown) [Compound P-0349, (4-(2-(5-chloro-1H-indazol-7-yl)-1,1-difluoro-2-hydroxyethyl)piperidin-1-yl)(cyclobutyl) methanone], the IC50 in assay [1], in assay [2], in assay [3] and in assay [4] was 0.0001 to 10 µM in each case.

Regarding `COCC(=O)N1CCC(C(F)(F)C(O)c2cc(Cl)cc3cn[nH]c23)CC1` (stereo not shown) [Compound P-0350, 1-(4-(2-(5-chloro-1H-indazol-7-yl)-1,1-difluoro-2-hydroxyethyl)piperidin-1-yl)-2-methoxyethan-1-one], the IC50 in assay [1], in assay [2], in assay [3] and in assay [4] was 0.0001 to 10 µM throughout.

As for `CC(C)C(=O)N1CCC(C(F)(F)C(O)c2cc(Cl)cc3cn[nH]c23)CC1` (stereo not shown) [Compound P-0351, 1-(4-(2-(5-chloro-1H-indazol-7-yl)-1,1-difluoro-2-hydroxyethyl)piperidin-1-yl)-2-methylpropan-1-one], the concentration for half-maximal inhibition (IC50) in assay [1], in assay [2], in assay [3] and in assay [4] was 0.0001 to 10 µM throughout.

For the compound `OC1(c2cc(Cl)cc3[nH]ncc23)CC2(CC2)C1` [Compound P-0352, 5-(6-chloro-1H-indazol-4-yl)spiro[2.3] hexan-5-ol], the IC50 in assay [1] is 0.0001 to 10 µM; in assay [2], 10 to 100 µM; in assay [3], 0.0001 to 10 µM; in assay [4], more than 10 µM.

Regarding `CC(C)(C1CCN(C(=O)NS(=O)(=O)c2ccccc2)CC1)C(O)c1cc(Cl)cc2cn[nH]c12` (stereo not shown) [Compound P-0353, 4-(1-(5-chloro-1H-indazol-7-yl)-1-hydroxy-2-methylpropan-2-yl)-N-(phenylsulfonyl) piperidine-1-carboxamide], the IC50 in assay [1], in assay [2], in assay [3] and in assay [4] was 0.0001 to 10 µM in each case.

`C[C@H](NC(=O)N1CCC(C(C)(C)C(O)c2cc(Cl)cc3cn[nH]c23)CC1)c1ccccc1` (stereo partly drawn) [Compound P-0354, 4-(1-(5-chloro-1H-indazol-7-yl)-1-hydroxy-2-methylpropan-2-yl)-N-((S)-1-phenylethyl) piperidine-1-carboxamide]: the IC50 in assay [1], in assay [2], in assay [3] and in assay [4] was 0.0001 to 10 µM each time.
